Experimental data taken from patent US20230151075A1, “PARATHYROID HORMONE ATTENUATES LOW BACK PAIN AND OSTEOARTHRITIC PAIN” (The Johns Hopkins University, priority 2019, published 2023).

Assays:
[1] = test system: OA joint; conditions: intra-articular injection; cited from earlier work
[2] = test system: patients with Modic changes associated LBP; conditions: cited from earlier work
[3] = test system: primary DRG neurons; test: Sodium indication (ANG-2 AM) in primary DRG neurons; format: cell-based, mice
Method: DRG neuron culture was processed as described previously. Saijilafu and Zhou, 2012. Briefly, the dishes or coverslips for DRG neuron culture were coated with 50 μL working solution containing 100 μg/mL Poly-D-Lysine and 10 µg/mL Laminin at 37° C. To prepare the neuron culture medium, alpha minimum essential medium (α-MEM) was supplemented with 1× penicillin-streptomycin solution (500 units of penicillin and 500 μg of streptomycin, Gibco Laboratories, Gaithersburg, Md.), 5% fetal bovine serum (Gibco), 1× GlutaMAX-1 supplement (35050-061, Thermo Fisher Scientific), and the antimitotic reagents containing 20 μM 5-fluoro-2-deoxyuridine (F0503, Sigma-Aldrich) and 20 μM uridine (U3003, Sigma-Aldrich). For the serum-free medium, the fetal bovine serum was replaced with the supplement B27. After euthanizing the 6- to 8-week-old mice, the lumbar DRGs were harvested and stored in microfuge tubes with α-MEM medium placed on ice. DRG neurons were digested and dissociated with 1 mg/mL collagenase A solution (10103578001, Roche, Basel, Switzerland) in a 37° C. incubator for 90 min followed by 1× TrypLE Express solution (15140-122, Thermo Fisher) at 37° C. for 20 min. Then, TrypLE Express solution was removed, and DRGs were washed gently 3 times with 1 mL prepared culture medium (containing 5% fetal bovine serum). Tissue was triturated by gently pipetting up and down 20-30 times in 1 mL prepared culture medium. After trituration, the DRG neuron suspension was filtered (40-μm strainer) following non-dissociated tissue settlement to the bottom of the microfuge and transferred to another tube. After centrifugation (800 r.p.m for 4 min at room temperature), the cell pellet was resuspended and cultured in a precoated dish.
For sodium indication. ANG-2 AM (Teflabs, Austin, Tex.) was used according to the manufacturer's protocol. Briefly, 1 mM stock solution of ANG-2 AM was diluted to twice the original volume with a solution of 20% Pluronic F-127 (Thermo Fisher Scientific) in DMSO. Then, the ANG-2 AM/Pluronic F-127 solution was dispersed to final concentration at 5 μM ANG-2 AM and 0.1% Pluronic F-127 with serum-free culture medium. After incubation for 1 h at 37° C., the cell loading medium was removed. The cells were washed with serum-free and dye-free medium and prepared for sodium imaging. The sterile imaging buffer contained 5.4 mM KCL, 160 mM NaCL, 20 mM HEPES, 1.3 mM CaCL2, 0.8 mM MgSO4, 0.78 mM NaH2PO4, and 5 mM glucose (pH 7.4) The sodium imaging was monitored and captured using a confocal microscope (Zeiss LSM 780).
In different sets of experiments, the DRG neurons were treated with 20 μM PGE2 (14010, Cayman Chemical, Ann Arbor, Mich.) for 5 min. […]

[4] = test system: PKA/CREB signaling; test: Western blot and fluorescent staining of PKA and CREB phosphorylation in primary DRG neurons; format: cell-based, mice
Method: DRG neuron culture was processed as described previously. Saijilafu and Zhou, 2012. Briefly, the dishes or coverslips for DRG neuron culture were coated with 50 μL working solution containing 100 μg/mL Poly-D-Lysine and 10 µg/mL Laminin at 37° C. To prepare the neuron culture medium, alpha minimum essential medium (α-MEM) was supplemented with 1× penicillin-streptomycin solution (500 units of penicillin and 500 μg of streptomycin, Gibco Laboratories, Gaithersburg, Md.), 5% fetal bovine serum (Gibco), 1× GlutaMAX-1 supplement (35050-061, Thermo Fisher Scientific), and the antimitotic reagents containing 20 μM 5-fluoro-2-deoxyuridine (F0503, Sigma-Aldrich) and 20 μM uridine (U3003, Sigma-Aldrich). For the serum-free medium, the fetal bovine serum was replaced with the supplement B27. After euthanizing the 6- to 8-week-old mice, the lumbar DRGs were harvested and stored in microfuge tubes with α-MEM medium placed on ice. […]
The primary DRG neurons were treated with 20 μM PGE2(14010, Cayman Chemical, Ann Arbor, Mich.) for 30 min; 10 μM PKA inhibitor (H-89, BML-E1196, Enzo Life Sciences, Farmingdale, N.Y.) for 1 h. […] Specific antibodies were applied for incubation, and the proteins were detected by using an enhanced chemiluminescence kit (Amersham Bioscience, RNP2108). […]

In the case of hyaluronic acid, the “duration of pain relief” value [1] is given as “up to 6 months”.

For denosumab, the analgesic effects [2] is given as “analgesic effects”.

In the case of CCCCC[C@H](O)/C=C/[C@H]1[C@H](O)CC(=O)[C@@H]1C/C=C\CCCC(=O)O [PGE2, Prostaglandin E2], the PGE2-stimulated sodium influx ([3]; DRG neurons of EP4−/− mice) is reported as “abolished”, the “sodium influx (fluorescent intensity of sodium indicator)” value ([3]; PGE2 20 μM 5 min, DRG neurons from EP4f/f mice) is reported as “significantly stimulated the enhancement of the fluorescent intensity” and the “activation of PKA and CREB” value ([4]; PGE2 20 μM 30 min) is reported as “activates”.

With CCCC(=O)Nc1ncnc2c1ncn2[C@@H]1O[C@@H]2COP(=O)(O)O[C@H]2[C@H]1OC(=O)CCC [cAMP, dibutyryl-cAMP] the sodium influx ([3]; DRG neurons of EP4−/− mice, PGE2 combined with cAMP) was “rescued sodium influx”.

With O=S(=O)(NCCNC/C=C/c1ccc(Br)cc1)c1cccc2cnccc12 [PKA inhibitor, H-89] the PGE2-induced sodium influx ([3]; PGE2 20 μM combined with H-89 10 μM or siRNA for Nav 1.8) was “ablated” and the “PGE2-induced activation of PKA and CREB” value ([4]; H-89 10 μM 60 min) was “abrogated”.
